# Data reported in PubChem BioAssay AID449762 (Southern Research Specialized Biocontainment Screening …, 2010).
# Results filed as inconclusive are left out.
# System: M. tuberculosis H37Rv growth inhibition, 7H9 media
# Assay: M. tuberculosis growth inhibition, HTS (AID 449762);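 further: bacterial growth assessed after seven days of incubation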
# Details: for IC90: measured here: IC90 growth inhibition
Compound,IC50,IC90
COc1ccc(C(C(O)C(=O)c2c[nH]c3ccccc23)N2CCN(c3ccc(OC)cc3)CC2)cc1 (stereo not drawn),100 µM,> 100 µM
Cn1/c(=N/NC(=O)c2cccc(OC(F)F)c2)sc2ccccc21,2 µM,22.7 µM
C=C(C)C1CC=C(CN2CCN(Cc3ccccc3)CC2)CC1 (stereo not drawn),15.7 µM,25.9 µM
c1ccc(-c2ccccc2OCCCCn2ccnc2)cc1,12.8 µM,25.6 µM
Nc1ccc2c(c1)Cc1ccccc1-2,–,> 100 µM
O=C(C1CC1)N1CCCC(c2ccc(Cl)cc2)=N1,33.1 µM,50.2 µM
S=C1SCN(Cc2ccco2)CN1Cc1ccco1,32.7 µM,52.3 µM
COc1ccc(C(=O)c2c(C(F)(F)F)oc3c2C(=O)c2ccccc2C3=O)cc1OC,12 µM,17.7 µM
Cn1nc(C(C)(C)C)cc1NC(=O)Nc1cc(Cl)cc(Cl)c1,18.5 µM,26.3 µM
COc1cc2cnc(-c3ccccc3)c(-c3ccc(C(F)(F)F)cc3)c2cc1OC,44 µM,> 50 µM
O=C(CN1CCC(n2nnc3cc(C(F)(F)F)ccc32)CC1)NCc1cccs1,37.5 µM,47.8 µM
Cc1csc(NC(=O)CCCC(=O)O)c1-c1nc2ccccc2s1,35.8 µM,79.6 µM
COc1ccc(-c2csc(NC(C)c3nc4cc(Cl)c(N5CCCCC5)cc4n3CCCO)n2)cc1 (stereo not drawn),11.2 µM,12.7 µM
Cc1nn(-c2ccccc2)c2c1C(c1ccc([N+](=O)[O-])cc1)N1C(=N2)C(=O)Nc2ccccc21 (stereo not drawn),41.4 µM,> 100 µM
CCOC(=O)COc1cc(O)c2c(=O)cc(-c3ccccc3)oc2c1,0.68 µM,2.33 µM
O=C(c1cnn2c(C(F)F)cc(-c3ccccc3)nc12)N1CCc2ccccc2C1,40.4 µM,49 µM
CCc1ccc(NC(=O)CSc2nc3n[nH]c(C)c3c(=N)n2-c2cccc(OC)c2)cc1,13.2 µM,37.1 µM
COc1cc(C(=O)N/N=C/c2cc([N+](=O)[O-])cs2)cc(OC)c1OC,< 0.2 µM,25.9 µM
COc1cc(/C=N/n2c(-c3ccc4c(c3)NC(=O)CO4)csc2=Nc2cccc(C)c2)ccc1O,34 µM,> 100 µM
CO[C@@]12[C@H](COC(N)=O)C3=C(C(=O)C(C)=C(N)C3=O)N1C[C@@H]1N[C@@H]12,39.6 µM,69.5 µM
COC(=O)C(C)Oc1ccc2c(c1)O/C(=C\c1ccco1)C2=O (stereo not drawn),5.58 µM,16 µM
C=CCN1CC[C@]23c4c5ccc(O)c4O[C@H]2/C(=N/NC(=O)c2ccccc2)CC[C@@]3(O)[C@H]1C5,79.5 µM,> 100 µM
Cc1nc2ccc(NC(=O)N(C(C)C)C(C)C)cc2s1,–,> 100 µM

Compound,IC50,IC90
Cc1cncn1CCc1nc2c3ccccc3nc(SCC(=O)Nc3cccc(Cl)c3)n2n1,20.9 µM,27.9 µM
COc1ccc(-c2cc(-c3ccccc3)c(C#N)c(S(C)=O)n2)cc1 (stereo not drawn),15.1 µM,29 µM
O=C(C[C@@H]1C/C=C\C[C@H](NC(=O)OCC2c3ccccc3-c3ccccc32)C(=O)OC[C@H]2CCCN2C1=O)N[C@@H](CO)Cc1ccccc1,16.1 µM,28.2 µM
CC1CCc2c(C(=O)Nc3nccs3)csc2C1 (stereo not drawn),7.27 µM,22.8 µM
COc1ccc(C2=Nn3c(nnc3-c3ccccc3F)SC2)cc1OC1CCCC1,8.9 µM,19.6 µM
Cc1cc(/C=C(/C#N)c2cccc(F)c2)c(C)n1-c1cccnc1,–,> 100 µM
CCCCCc1ccc(S(=O)(=O)NCCc2ccncc2)cc1,34.1 µM,42.8 µM
CCOc1ccc2nc(/N=C/c3nc(-c4ccccc4)oc3O)sc2c1,–,> 100 µM
COc1ccc(NC(=O)CSC2=C(C#N)C(c3ccco3)C(C(=O)Nc3nc4ccccc4s3)=C(C)N2)cc1 (stereo not drawn),5.57 µM,7.26 µM
O=S(=O)(c1ccc(Cl)cc1)c1snnc1-c1ccccc1,6.27 µM,51.8 µM
O=C(NNc1nc(-c2ccccc2)cs1)c1ccccc1,7.6 µM,> 100 µM
COC(=O)COc1ccc(-c2ccccc2)cc1C=O,11 µM,19 µM
Cc1cc(/C=C\c2ccc3cc(N(C)C)ccc3[n+]2C)c(C)n1-c1ccccc1,1.86 µM,3.19 µM
CCOC(=O)c1sc(C)c2c(=O)n(CC(=O)c3ccc(Br)cc3)nnc12,74.3 µM,> 100 µM
CCOC(=O)c1cnc(SC2CCc3ccccc3C2=O)nc1N (stereo not drawn),70.8 µM,88.7 µM
O=C(CSC1=Nc2ccccc2C2=NC(c3ccccc3)C(=O)N12)NC1CCCCC1 (stereo not drawn),0.66 µM,1.29 µM
c1ccc(-n2cnc3cc(NCc4cccs4)ccc32)cc1,85.6 µM,97.2 µM
Cc1sc2nc(CN(C(=O)NC3CCCCC3)C3CCCC3)[nH]c(=O)c2c1C,30.5 µM,> 100 µM
CN1CCN(/N=C/c2c3ccccc3c(Cl)c3ccccc23)CC1,77.7 µM,> 100 µM
COc1cc(NC(=O)c2cccs2)c(C(=O)OCC(=O)NCc2ccco2)cc1OC,23.9 µM,> 100 µM
COC(=O)/C(=C1/Oc2cc(C)oc(=O)c2S1)C(F)(F)F,6.24 µM,> 100 µM
CN1CCN(c2ccc(C(=O)c3cn(-c4ccc(F)c(Cl)c4)nn3)cc2)CC1,–,> 100 µM
COC(=O)c1ccc(Cn2cc(C(F)(F)F)cc([N+](=O)[O-])c2=O)cc1,< 0.2 µM,23.7 µM

Compound,IC50,IC90
CC(C)Cn1c([N+](=O)[O-])nc2c1c(=O)[nH]c(=O)n2C,5.93 µM,8.91 µM
Cc1nc2ccc(OC(=O)c3ccccc3)cc2s1,66 µM,86 µM
O=C1C(Cl)=C(N2CCOCC2)C(=O)N1c1cccc(Cl)c1,3.48 µM,7.3 µM
O=C(OCC(=O)N1CCN(c2ccccc2)CC1)c1cnc(Cl)c(Cl)c1,20 µM,41.7 µM
CC(=O)Nc1ccc(S(=O)(=O)Nc2ccc(N3CCCCC3)cc2)cc1,12.4 µM,13.8 µM
CC(C)Nc1nc(NC(C)C)nc(N(C)N)n1,5.75 µM,7.57 µM
CCCCCNc1nc(N2CCCC2)c2c(c1C#N)CCN(C)C2,83.7 µM,> 100 µM
CC(C)(C)C1CCc2sc(-c3nnc(CCl)o3)cc2C1 (stereo not drawn),< 0.2 µM,5.54 µM
CNC[C@H](Cc1cccc2ccccc12)NC[C@H](CCSC)NCC1CCC(C(C)(C)C)CC1 (stereo partly drawn),22.4 µM,24.2 µM
COc1cc(N)c(Cl)cc1C(=O)N[C@H]1CCN(CCCOc2ccc(F)cc2)C[C@H]1OC,43.8 µM,55.2 µM
CCOc1ccc(CN(C)CC(O)COC(c2ccc(OC)cc2)c2ccc(OC)cc2)cc1 (stereo not drawn),10.5 µM,13.4 µM
O=C([O-])c1ccccc1-[n+]1c(-c2ccccc2)cc(-c2ccccc2)cc1-c1ccccc1,15.3 µM,20.5 µM
c1ccc(-c2nc(N3CCCC3)nc3ccccc23)cc1,37.5 µM,51.8 µM
CCOC(=O)c1cc(/C(C)=N/OC(=O)c2ccc(C(C)(C)C)cc2)on1,13.1 µM,24.8 µM
Brc1cccc2sc(N3CCN(c4ccccc4)CC3)nc12,44.5 µM,> 100 µM
N[C@@H](CCl)C(=O)O,39.4 µM,58.9 µM
CSc1nc2nc3c(c(=O)n2[nH]1)CCCC3,20.5 µM,> 100 µM
CCN(CC)C(=S)SSC(=S)N(CC)CC,0.78 µM,1.53 µM
COC(=O)c1ccc(NC(=O)CSc2nc3ccc(N4C(=O)C5C6C=CC(C6)C5C4=O)cc3s2)cc1 (stereo not drawn),3.89 µM,5.73 µM
Cc1ccc(NC(=O)c2ccc(CSc3nnc(C)s3)cc2)c(C)c1,17.4 µM,> 25 µM
c1ccc(C[C@H]2CN=C(Nc3ccccc3)N2CCCC2CCCC2)cc1,31.4 µM,48.5 µM
C=CCNC(=S)N/N=C(\C)c1ccccn1,7.07 µM,17.7 µM
COc1ccccc1N1CCN(c2ccc(-c3ccccc3)nn2)CC1,84.4 µM,> 100 µM

Compound,IC50,IC90
c1ccc(CN2CCN(c3nc(NCc4ccco4)c4ccccc4n3)CC2)cc1,18.1 µM,23.8 µM
Cc1noc2ncnc(Sc3ccc(Cl)cc3)c12,82.9 µM,> 100 µM
COc1ccc(C(=O)OCC(=O)c2ccc(Br)s2)c(OC)c1,26 µM,> 100 µM
COC(=O)CSc1nnc(CNc2ccc(Cl)cc2)n1-c1ccccc1,12.7 µM,37.4 µM
N/C(Cc1ccc([N+](=O)[O-])cc1)=N\OC(=O)c1ccc2ccccc2c1,22.5 µM,> 100 µM
COc1ccc(-c2oc(NC(=O)CCl)c(C#N)c2-c2ccc(OC)cc2)cc1,12.5 µM,54.7 µM
O=C(CSc1ncnc2nc[nH]c12)c1ccc(Cl)cc1,12.1 µM,13.9 µM
O=C(NC1CCN(Cc2ccccc2)CC1)c1cccc(S(=O)(=O)Nc2ccc(SC(F)F)cc2)c1,15.5 µM,21.9 µM
Cc1ccc(C)c(C2C(=O)c3ccccc3C2=O)c1,3.94 µM,16.3 µM
CO/N=C(\Cn1ncc(N2CCCC2)c(Cl)c1=O)c1ccc(Cl)cc1,16.9 µM,27.5 µM
O=C(CCl)Nc1cn(-c2ccccc2)nc1-c1ccccc1,< 0.2 µM,1.15 µM
CC(C)C1N=C(c2ccc3c(c2)OCO3)CC(c2ccccc2O)N1 (stereo not drawn),20.8 µM,30.4 µM
COc1ccc2c(c1)CC/C(=C\C=C\c1ccccc1OC)C2=O,7.79 µM,17.8 µM
O=C(NCC(c1cccs1)N1CCOCC1)c1cc([N+](=O)[O-])cc([N+](=O)[O-])c1 (stereo not drawn),0.72 µM,0.81 µM
COc1cccc(COC(=O)c2ccc3c(=O)n4c(nc3c2)CCC4)c1OC,21.1 µM,50.6 µM
COc1ccc(Nc2nc(N)c([N+](=O)[O-])c(NC3CCCCC3)n2)cc1,9.76 µM,18.8 µM
CCOc1ccc(-c2nn3c(-c4ccccc4)nnc3s2)cc1,29.2 µM,> 100 µM
COC(=O)C(C)Oc1ccc(Cc2ncc(C(F)(F)F)cc2Cl)cc1 (stereo not drawn),2.43 µM,5.77 µM
C=CCc1cc(C)ccc1OCCCC(C(=O)OCC)C(=O)OCC,9.72 µM,21.4 µM
O=C(COC(=O)C1=COCCO1)NCc1ccc(Cl)cc1,14.8 µM,> 100 µM
